Reference: PubChem BioAssay (NCI)
Values joined by “and” are separate entries in the source; they are usually repeats but may differ in a detail not shown here. Equal entries are not always repeated.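 How tested: cells in 96-well plates exposed to compound for 48 hours at five concentrations. Here, GI50 denotes the concentration required for 50% inhibition of growth. Definition used: TGI = concentration required for complete inhibition of growth.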

Tests used:
Assay in all cases: NCI anticancer screen, dose series, 48 h
[1] = tested on: MDA-MB-231 breast
[2] = tested on: HS 578T breast
[3] = tested on: MDA-N
[4] = tested on: XF 498 CNS
[5] = tested on: LXFL 529 NSCLC
[6] = tested on: RXF-631 renal

Compound | GI50 [1] | TGI [1] | GI50 [2] | TGI [2] | TGI [3] | TGI [4] | TGI [5] | TGI [6]
CC[C@H](CO)Nc1nc(NCc2ccccc2)n2ncc(C(C)C)c2n1 | 2.37 µM | 9.47 µM | 1.59 µM | 6.16 µM | – | – | – | –
Cc1ccc(S(=O)(=O)Nc2cccc3[nH]c(C(F)(F)F)nc23)cc1 | 1.61 µM | 22.5 µM | 0.887 µM | 38.2 µM | – | – | – | –
COc1c2c(nc3ccccc13)-c1cc3c(c(=O)n1C2)COC(=O)C3(O)CC(=O)N1CCOCC1 (stereo not drawn) | – | > 100 µM | – | > 88.8 µM | > 100 µM | 33.9 µM | > 100 µM | –
CN(/N=C/c1cccc2cccnc12)c1ccccc1 | – | – | – | – | – | > 100 µM | > 100 µM | –
O=C(Nc1cccc(NC(=O)Nc2cc(C(F)(F)F)ccc2Cl)c1)Nc1cc(C(F)(F)F)ccc1Cl | 2.3 µM | 22 µM | 2.64 µM | 8.81 µM | – | – | – | –
CS[C@]12C(=O)C[C@@]3(C)[C@@H](CC[C@]3(O)C(=O)CO)[C@@H]1CCC1=CC(=O)CC[C@@]12C | – | > 100 µM | – | > 100 µM | 69.4 µM | – | – | –
C[C@]12CCC3[C@@H](CC[C@@H]4c5nonc5CC[C@]34C)C1C/C(=N/O)C2=O (stereo partly drawn) | – | – | – | – | – | 40.4 µM | > 100 µM | > 100 µM
CC[N+]1(C)CCC(O)(c2ccc(Cl)c(Cl)c2)C(C(=O)c2ccc(Cl)c(Cl)c2)C1 (stereo not drawn) | – | – | – | > 10 µM | > 10 µM | – | – | –
COC(=O)CCC(NC(=S)N/N=C/c1ccco1)C(=O)OC (stereo not drawn) | – | – | – | – | – | > 100 µM | > 100 µM | > 100 µM
O=S1(=O)OCCOS(=O)(=O)C1Cc1ccccc1 | – | – | – | – | – | > 100 µM | – | –
CCc1cccc(C)c1NC(=O)C(=O)Cc1nc2ccccc2s1 | – | – | – | – | – | – | > 100 µM | > 100 µM
COc1ccc(/C=C2\S/C(=N/Nc3nc(-c4ccccc4)cs3)NC2=O)cc1OC | – | 75.7 µM | – | 83.3 µM | 33.7 µM | – | – | –
COc1ccc(OC)c(NC(=O)CCC/C(CC(=O)c2ccc(O)c(OC)c2)=N\Nc2ccc([N+](=O)[O-])cc2)c1 | – | – | – | – | – | > 100 µM | > 100 µM | > 100 µM
COc1ccc(C(=O)C(c2ccc(OC)cc2)C2(O)C(=O)Nc3c2ccc(Cl)c3C)cc1 (stereo not drawn) | – | – | – | – | – | – | > 100 µM | > 100 µM
COc1ccc(C(=O)c2cc3c(N)c(C(=O)Nc4cccc5ccccc45)sc3nc2C)cc1 | 0.271 µM | > 50 µM | 0.198 µM | > 50 µM | – | – | – | –
C1=C2/CC[C@H](Sc3ccccc3)[C@H]2C2(CCCCC/1)OCCO2 | – | – | – | – | – | – | > 100 µM | –
Cc1c2c(nn1C)CSCc1cc(n(C)n1)CSc1cc(c3ccccc3c1)OCCCc1c(C(=O)O)n(C)c3c-2c(Cl)ccc13 | 5.32 µM | 18.2 µM | 4.48 µM | 32.7 µM | – | – | – | –
C/C(CC(=O)Nc1ccc(Cl)cc1)=N\NC(N)=S | – | – | – | – | – | > 100 µM | > 100 µM | > 100 µM
Cc1ccc(N2C(=O)C3C=CC(n4[nH]c(=O)n(Cc5ccccc5)c4=O)CC3C2=O)cc1 (stereo not drawn) | – | – | – | – | – | > 100 µM | > 100 µM | –
C=C1C(=O)OC2C1C(OC(=O)/C(C)=C/C)CC(O)(CCl)C1C(O)C3OC3(C)C21O (stereo not drawn) | – | > 50 µM | – | > 50 µM | > 50 µM | – | – | –
CCOC(=O)NC(=O)c1cn(CCCCCCOC(=O)NCCCCCCNC(=O)OCCCCCCn2cc(C(=O)NC(=O)OCC)c(=O)[nH]c2=O)c(=O)[nH]c1=O | – | – | – | – | – | – | > 100 µM | > 100 µM

Compound | GI50 [1] | TGI [1] | GI50 [2] | TGI [2] | TGI [3] | TGI [4] | TGI [5] | TGI [6]
CCOc1cc2ncc(C#N)c(Nc3ccc(OCc4ccccn4)c(Cl)c3)c2cc1NC(=O)/C=C/CN(C)C | 1.35 µM and 1.48 µM | 2.99 µM and 5.63 µM | 0.54 µM and 0.351 µM | 66.6 µM and > 5.76 µM | – | – | – | –
Cn1cc(C2=C(c3cccc(OCC(O)CO)c3)C(=O)NC2=O)c2ccccc21 (stereo not drawn) | > 25 µM | > 25 µM | > 15.2 µM | > 25 µM | – | – | – | –
Cc1cccc(C(C)C)c1NC(=O)CC1C(=O)Nc2ccccc2S1(=O)=O (stereo not drawn) | – | – | – | – | – | > 59.9 µM | 35.5 µM | > 52.6 µM
COc1cc(/C=C2\Sc3scc(-c4cccc([N+](=O)[O-])c4)[n+]3C2=O)cc(OC)c1OC | – | 25.2 µM | – | 57.1 µM | 27.1 µM | – | – | –
COc1cc(C(=O)NC2CCN(C)CC2)c(F)cc1Nc1ncc2c(n1)N(C1CCCC1)CC(F)(F)C(=O)N2C | – | – | < 0.0342 µM | 10.4 µM | – | – | – | –
CC(C)c1cccc2sc(NC(=O)C(=O)C(C#N)c3cccc4ccccc34)nc12 (stereo not drawn) | – | – | – | – | – | – | > 100 µM | > 100 µM
COc1ccc(/C=C2\CCCC3=C2NC(N)=NC3c2ccc(OC)c(OC)c2)cc1OC (stereo not drawn) | 13.2 µM | > 100 µM | 21.5 µM | > 100 µM | – | – | – | –
CC1=C(CO)C(=O)O[C@@H]([C@@H](C)[C@H]2CC[C@H]3[C@@H]4C[C@@H](O)[C@@]5(O)CC=CC(=O)[C@]5(C)[C@H]4CC[C@]23C)C1 | – | > 100 µM | – | > 100 µM | > 100 µM | – | – | –
CCSCCCN(CCCSCC)CCCSCC | – | > 100 µM | – | – | > 100 µM | – | – | –
COc1ccc(/C=N/N=C(\N)NO)c(OC)c1 | – | – | – | – | – | – | 86.3 µM | –
COc1cc([C@H]2OC[C@H]3[C@@H]2CO[C@@H]3c2cc(OC)c3c(c2)OCO3)cc(OC)c1OC | – | > 100 µM | – | > 100 µM | > 100 µM | – | – | –
O=C(c1ccccc1)c1cccc(C(=O)c2ccccc2)c1 | – | – | – | – | – | > 100 µM | > 100 µM | –
CC1(C)[C@@H](OC(N)=O)[C@H]2O[C@H]2[C@]2(CO)[C@H]3CC[C@]4(C)[C@@H](c5ccc(=O)oc5)[C@@H](Cl)C[C@]4(O)C3=CC[C@@H]12 | 0.0283 µM | 0.103 µM | 0.00524 µM | 0.0207 µM | – | – | – | –
CCOC(=O)NC(=O)c1cn(CCN2CCN(c3ncnc4nc[nH]c34)CC2)c(=O)[nH]c1=O | – | – | – | – | – | > 100 µM | > 100 µM | > 100 µM
C=C1C(=O)OC2/C=C(/C)C(OC(C)=O)CC(O)/C(C)=C\C(OC(=O)/C(C)=C\C)C12 (stereo not drawn) | – | > 100 µM | – | > 100 µM | > 100 µM | – | – | –
CC1(C)C2C=CC1(C)C1(CC2)OCCO1 (stereo not drawn) | – | > 100 µM | – | > 100 µM | > 100 µM | – | – | –
O=C1c2ccccc2-c2c1c1ccccc1c(=O)n2CCN1CCOCC1 | > 100 µM | > 100 µM | > 100 µM | > 100 µM | – | – | – | –
COc1ccc(C2=NN(c3ccccc3)C[N+](c3ccc(OC)cc3)=N2)cc1 | – | – | – | – | – | 39.1 µM | 45.4 µM | –
Cc1ccc(Nc2nc(C)c(C(/C=C/c3ccc(/C=C/C(=N/NC(=O)C[n+]4ccccc4)c4sc(Nc5ccc(C)cc5[N+](=O)[O-])nc4C)cc3)=N\NC(=O)C[n+]3ccccc3)s2)c([N+](=O)[O-])c1 | – | – | – | – | – | – | > 100 µM | > 100 µM
COc1ccc(OC)c(-c2c(C#N)c(N)nc(N3CCOCC3)c2C#N)c1 | 40.3 µM | > 100 µM | 87.4 µM | > 100 µM | – | – | – | –
